Reference: patent publication US8552052B2, “Use of diindolylmethane-related indoles for the treatment and prevention of respiratory syncytial virus associated conditions” (BioResponse, L.L.C., priority 2004, dated 2013)

Key:
RSV A2 = assay: RSV infection in cyclophosphamide pre-treated mice (pulmonary titer, histology); format: in vivo; settings: cyclophosphomide pre-treated mice; vs vehicle treated placebo group
Description: Another in vivo model of RSV infection has been developed using mice treated with cylphosphamide to induce immune deficiency and create a standardized receptive host for experimental infection (Sudo et al., 1999, Antivir Chem Chemother. 10:135-9). The technique provides for quantitation of pulmonary viral load following induced infection. This model can be used to assess the impact of daily intraperitoneal injections of DIM and/or an EGFR inhibitor drug (Gefitinib or Erlotinib) on in vivo RSV replication and induced pathology.
Alternatively, mice are treated intraperitoneally with 100 mg of cyclophosphamide (CYP) per kg of body weight 5 days before virus inoculation. The mice are weighed, anesthetized with sodium pentobarbital (50 mg/kg), and inoculated intranasally with approximately 10^5 PFU of RSV A2 in 50 μl (day 0). […]
Alternatively, the removed lungs are homogenized with glass homogenizers with a Teflon pestle (Ikemoto Scientific Technology Co., Ltd., Tokyo, Japan) in 4 ml of Hanks balanced salt solution supplemented with 0.218 M sucrose, 4.4 mM glutamate, 3.8 mM KH2PO4, and 3.2 mM K2HPO4 as described previously (Piazza et al., 1993, J. Virol. 67:1503-1510). […] The numbers of RSV plaques are counted.
Histologic methods and evaluation. […] The stained sections are coded by number and are evaluated blind as to the previous treatment. […]

bRSV = assay: Experimental bovine Respiratory Syncytial Virus (bRSV) infection in calves; format: in vivo, Male Jersey calves; settings: vs vehicle only treated positive control animals
RSV infected A549 cells = assay: TUNEL assay for visualization of apoptosis in RSV infected A549 cells; format: cell-based, human; settings: DIM at 210 and 700 nM; 12, 18, and 24 hours post infection; data not shown
Method: Cell Culture—A549 cells, a tumor cell line with properties of normal airway epithelial cells, were obtained from American Type Culture Collection (ATCC, Manassas, Va.) and incubated at 37° C. in 5% CO2. The cells were cultured in Eagle's minimum essential medium (MEM, Invitrogen) supplemented with 10% fetal bovine serum (HyClone, Logan, Utah) and […] gentamicin. The A549 cells were subcultured by harvesting in 0.12% trypsin no more than 20 times from stock originally designated at pass 70. To minimize effects of exogenous growth factors or cytokines in this system, the supplemented serum concentration was reduced to 0.5% 24 h prior to and during all experiments with RSV infection.
RSV Virus—RSV, strain A2, was obtained from Advanced Biotechnologies Inc. (Columbia, Md.) and was used directly as supplied for all experiments. The viral preparation was tested to have a TCID50 titer of ˜1×10^9 in Hep-2 cells at 7 days. Sterile vials of the RSV preparation were supplied in MEM supplemented with 10% fetal calf serum, stored at −135° C. and rapidly thawed at 37° C. immediately prior to use. […]
Apotosis in RSV infected A549 cells cultured with and without DIM was further studied using the TUNEL assay for visualization of apoptosis. […] To remove unincorporated dUTP, slides were washed three times 15 min each with 2×SSC and three times with PBS, and then viewed in a fluorescence microscope. […]

[1] = water and lipid; cited from earlier work

## c1ccc2c(Cc3c[nH]c4ccccc34)c[nH]c2c1 [DIM, 3,3′-diindolylmethane]
RSV A2
  pathology score on histologic examination: reduced pathology score
  pulmonary RSV titers: reduction of pulmonary RSV titers
bRSV
  evidence of active bRSV infection: less evidence of active bRSV infection
RSV infected A549 cells
  apoptosis in TUNEL stained photomicrographs: clearly showed earlier apoptosis
[1]
  solubility: low solubility
